Results: US11649235B2, “Pan-tropic entry inhibitors” (Emory University, priority 2018, dated 2023)
Read-outs that look alike come from different tables or passages of the source. One block for each compound: values may come before it.

Legend:
HIV = conditions: in vitro resistance studies; cited from earlier work
MAGI [1] = test: Cytotoxicity in MAGI HIV-1BaL assay; assay type: cell-based; conditions: Table 3; head prints TC90
Procedure: (§1) HIV-1 and MAGI Tropism assays can be used to establish activity/cytotoxicity and synergy studies and ADME profiles of compounds are evaluated using in vitro assays such as CYP2D6/3A4 assays and metabolic stability in human and mouse liver microsomes (See Tables 2 and 3).

CYP2D6 = CYP2D6 (Homo sapiens (Human), UniProt P10635); test: Recombinant CYP inhibition assay (fluorometric), CYP2D6; assay type: in vitro ADME
Description: (§2) Recombinant CYP Inhibition Assay: In a drug discovery program, a rapid screening for cyctochrome P450 (CYP450) inhibitors is a part of the existing standard for avoiding the development of drugs likely to give clinical pharmacokinetic drug-drug interactions and associated toxicities. A microtiter plate-based, direct fluorometric assay for the activities of the principal human drug-metabolizing enzymes, CYP2D6 and CYP3A4 can be used and these assays are rapid and compatible with existing high-throughput assay instrumentation.
(§3) Fluorometric Enzyme Inhibition Assays: Test compounds were dissolved in 100% organic solvent (CH3CN or DMSO) to make 30 mM stock solutions. […] A 100 mM potassium phosphate buffer was prepared and adjusted to pH 7.4. The 30 mM stock solution of test and control compounds (1 mM) were further diluted in phosphate buffer (100 mM, pH 7.4) to ensure the final organic solvent content was <0.2% in the reaction. In a separate falcon tube, a 2× enzyme/substrate (E/S) solution was prepared in phosphate buffer. The final concentration of CYP2D6 (Corning) and AMMC was 10 nM and 4 μM, and CYP3A4 (Corning) and BFC was 20 nM and 40 μM, respectively. In a separate falcon tube, a 2× NADPH regenerating system (NRS) was prepared in phosphate buffer. The final concentration for each component in the assay was as follows: • CYP2D6 assay=0.008 mM NADPH, 3.3 mM glucose 6-phosphate, 0.4 U of glucose-6-phosphate dehydrogenase/mL • CYP3A4 assay=2.45 mM NADPH, 24.7 mM glucose 6-phosphate, 1.25 U of glucose-6-phosphate dehydrogenase/mL
(§4) Both enzymatic assays were conducted in a 96-well microtiter plate (Black, Corning Costar) with a final volume of 100 μL. Preparation of the plate began with the addition of 74 μL of the E/S in the first well, and 50 μL to all subsequent wells (from 2-11). The test compounds (1 μL) were dissolved in the first well to give the first row a final volume of 75 μL. A 1:3 serial dilution of the test compound was conducted by removing 25 μL from the first well and diluting it with the second and so forth until the tenth row. Final concentrations yielded a range from 300 μM-0.01 μM. Well 11 contained no enzyme, and well 12 contained no inhibitor. Both were used as controls for background fluorescence. The plate was incubated for 10 min at 37° C. for CYP2D6, and 30 mins for CYP3A4. After incubation, the reaction was initiated by the addition of 50 μL of the 2× NRS to each well.
(§5) Immediately (within 1 min) the fluorescence was measured using a microplate reader (KC4, BioTek). CYP2D6 was monitored at Ex/Em=410/460 nm, and CYP3A4 monitored at Ex/Em=410/538 nm in kinetic mode that scanned every 5 min for 60 mins. Data was exported and corrected for background noise by subtracting the blank from the mean value of all other columns. […]

HIV-1BaL = test: HIV MAGI assay, HIV-1BaL; assay type: cell-based; conditions: Human immunodeficiency virus 1, MAGI
Procedure: as §1

[2] = Mouse liver microsomes assay; assay type: in vitro ADME; conditions: for Relative % remaining, mouse liver microsomes: 3 μM compound, 1 mg/mL microsomes
Procedure: Controls were processed and analyzed like test compounds. […] The relative percent remaining was calculated using: Relative % remaining=[…]=0*100. […] Metabolism data averaged duplicates.

CYP3A4 = CYP3A4 (Homo sapiens (Human), UniProt P08684); test: Recombinant CYP inhibition assay (fluorometric), CYP3A4; assay type: in vitro ADME
Description: as §2, §3, §4, §5

MAGI [3] = test: Cytotoxicity in MAGI HIV-1IIIB assay; assay type: cell-based; conditions: Table 3
Procedure: as §1

[4] = Procedure: Human Liver Microsomes: Pooled mixed gender human liver microsomes at a concentration of 20 mg/mL were purchased from XenoTech (Kansas City, Kans.). The vials of microsomes were stored at −80° C. and thawed on ice before each experiment. The microsomes were diluted to 1 mg/mL with 100 mM potassium phosphate buffer (pH 7.4).
Experimental Conditions: Test compounds were weighed and dissolved in 100% acetonitrile to make 2 mM stock solutions. […] The 2 mM stock solution of test and control compounds were further diluted in sodium phosphate buffer (100 mM, pH 7.4) to 50 μM to ensure the acetonitrile content was <0.2%.
The liver microsome assay was prepared in a 1.5 mL Eppendorf tube (Fisher Scientific) with a final volume of 1100 μL. Each reaction contained sodium phosphate buffer, liver microsomes (1 mg/mL), and test compound resulting in a final concentration of 3 μM. Following a 5 min pre-incubation of drug and microsomes in a 37° C. shaking incubator, the reaction was initiated with NADPH (110 μL). Aliquots (100 μL) were removed in duplicate at 0, 5, 10, 15, and […] and quenched in cold acetonitrile (200 μL). The aliquots were centrifuged at 12,000 g for 5 min and the supernatant removed and placed in an LCMS vial. […] A no NADPH negative control with test and control compound was conducted in singlet (150 μL) at the longest time point. Controls were processed and analyzed like test compounds.
An Agilent Technologies LCMS system consisting of an Agilent 6120 quadrupole mass spectrometer equipped with an Agilent 1200 binary pump, degasser, and auto sampler (Santa Clara, Calif.). The analytical column used for analysis was an XDB-Eclipse Plus C18 column (4.6 mm×150 mm column; Agilent Technologies). The mobile phase for the HPLC was 50 mM ammonium formate buffer, pH 3.5 (A) and acetonitrile (B). The samples were analyzed using the following 8-minute method: A linear gradient from 10% B to 95% B over for 5 minutes, with a 3 min hold at 95%. An equilibration at 10% B for 5 min was conducted after each run. Sample injection volume was 10 μL and the flow rate was 1.0 mL/min. Single ion monitoring of the mass in positive mode was conducted the molecular weight for each compound. Each time point was assessed on the LCMS and the area, based on the extracted ion, was manually integrated.
Calculations: The depletion of the compound was monitored as a function of time, and the area under the curve was manually integrated. The relative percent remaining was calculated using: Relative % remaining=AreaTime/AreaTime=0*100. The relative percentages for the duplicate runs were averaged and the standard deviations were calculated. Metabolism data averaged duplicates.

HIV-1IIIB = test: HIV MAGI assay, HIV-1IIIB; assay type: cell-based; conditions: Human immunodeficiency virus 1, MAGI
Procedure: as §1

Sequence of CYP3A4 (P08684 whole entry): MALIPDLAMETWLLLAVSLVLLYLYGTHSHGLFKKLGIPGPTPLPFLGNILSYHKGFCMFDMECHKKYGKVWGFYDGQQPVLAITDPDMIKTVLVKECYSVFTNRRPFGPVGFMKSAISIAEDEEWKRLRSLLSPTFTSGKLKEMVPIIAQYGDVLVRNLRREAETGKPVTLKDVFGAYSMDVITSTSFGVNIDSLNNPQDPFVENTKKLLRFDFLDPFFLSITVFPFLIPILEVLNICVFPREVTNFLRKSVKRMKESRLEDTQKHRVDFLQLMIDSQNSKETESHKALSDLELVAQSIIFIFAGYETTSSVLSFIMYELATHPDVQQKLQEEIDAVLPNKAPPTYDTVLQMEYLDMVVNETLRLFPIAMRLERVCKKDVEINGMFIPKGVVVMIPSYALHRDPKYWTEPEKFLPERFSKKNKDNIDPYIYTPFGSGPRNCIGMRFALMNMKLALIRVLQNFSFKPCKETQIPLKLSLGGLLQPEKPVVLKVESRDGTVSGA
Sequence of CYP2D6 (P10635 whole entry): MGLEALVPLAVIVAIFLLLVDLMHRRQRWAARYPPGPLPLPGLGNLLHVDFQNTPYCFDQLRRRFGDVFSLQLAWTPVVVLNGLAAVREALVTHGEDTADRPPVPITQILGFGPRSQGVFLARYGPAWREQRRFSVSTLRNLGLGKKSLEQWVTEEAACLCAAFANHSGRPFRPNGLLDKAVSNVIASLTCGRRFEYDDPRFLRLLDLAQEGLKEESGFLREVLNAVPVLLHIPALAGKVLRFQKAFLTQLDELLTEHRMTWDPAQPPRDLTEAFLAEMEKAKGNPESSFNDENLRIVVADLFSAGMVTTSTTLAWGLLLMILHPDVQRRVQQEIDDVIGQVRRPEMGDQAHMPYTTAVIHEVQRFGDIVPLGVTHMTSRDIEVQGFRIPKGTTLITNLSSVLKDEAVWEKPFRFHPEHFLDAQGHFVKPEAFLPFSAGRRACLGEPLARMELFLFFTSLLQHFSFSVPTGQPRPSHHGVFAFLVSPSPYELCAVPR

Structure (SMILES): Cc1ccnc2c1NC(=O)c1cccnc1N2C1CC1 [nevirapine]
Passages required to develop resistance (HIV): 2 passages

IC50 (CYP2D6; Table 1): > 20000 nM
Inhibition of cytochrome P450 isoform 2D6 (in words) (CYP2D6; preliminary ADME screening): does not inhibit
IC50 (HIV-1BaL; Table 3): 2610 nM
IC90 (HIV-1BaL; Table 3): 29100 nM
EC50 (HIV-1BaL; Table 1, read-out: HIV MAGI EC50 HIVBa-L): 2610 nM
Stability in mouse liver microsomes (in words) [2]: good stability
Relative % remaining, mouse liver microsomes ([2]; 10 min): 95 ± 7.2%
Relative % remaining, mouse liver microsomes ([2]; 30 min): 96 ± 6.5%
MLM ([2]; @ 10 min, Table 1): 95% @ 10 min
IC50 (CYP3A4; Table 1): > 20000 nM
Inhibition of cytochrome P450 isoform 3A4 (in words) (CYP3A4; preliminary ADME screening): does not inhibit
Stability in human liver microsomes (in words) [4]: good stability
Relative % remaining, human liver microsomes ([4]; both, 10 min, 3 μM, pH 7.4): 65 ± 8.6%
Relative % remaining, human liver microsomes ([4]; both, 0.5 h, 3 μM, pH 7.4): 78 ± 2.2%
HLM ([4]; both, human, microsomes, 10 min, 3 μM, pH 7.4): 65% @ 10 min
IC50 (HIV-1IIIB; Table 3): 70 nM
IC90 (HIV-1IIIB; Table 3): 680 nM
EC50 (HIV-1IIIB; Table 1, read-out: HIV MAGI EC50 HIVIIIB): 70 nM
Structure (SMILES): NCCCCN(C[C@H]1CN(CC[C@H](NC(=O)C2CCC(F)(F)CC2)c2ccccc2)CCN1)[C@H]1CCCc2cccnc21 [Compound 2]
MAGI HIV-1BaL TC90 (MAGI [1]): 33100 nM
MAGI HIV-1IIIB TC50 (MAGI [3]): >10000 nM

Structure (SMILES): Cc1ccc(-c2ccc3c(c2)C=C(C(=O)Nc2ccc(C[N+](C)(C)C4CCOCC4)cc2)CCC3)cc1.[Cl-] [TAK-779]
Passages required to develop resistance (HIV): 41 passages

Structure (SMILES): Cc1cn([C@H]2C[C@H](N=[N+]=[N-])[C@@H](CO)O2)c(=O)[nH]c1=O [AZT]
Passages required to develop resistance (HIV): 11 passages

Structure (SMILES): c1cc(CN2CCCNCCNCCCNCC2)ccc1CN1CCCNCCNCCCNCC1 [AMD3100]
Passages required to develop resistance (HIV): 63 passages
